Test results reported in patent US11692008B2, “Preparation and uses of reactive oxygen species scavenger derivatives” (XWPHARMA LTD., priority 2017, dated 2023).
Like-named read-outs stand apart in the source and are kept apart here.

Key:
[1] = test system: HT-1080 cells; assay: Ferroptosis cell viability assay (Erastin-induced, CellTiter-Glo); assay type: cell-based; details: read-out: EC50, inhibition for ferroptosis in HT-1080 cell
Experimental: Cell Lines and Media: HT-1080 (fibrosarcoma) cells were obtained from American Type Culture Collection. Cells were grown in EMEM media, 10% Heat-Inactivated FBS, and penicillin-streptomycin mix (Invitrogen). Cells were maintained at 37° C. and 5% CO2 in a tissue culture incubator.
Cell Viability Assay. Seed 10,000 cell/well of HT-1080 cells with 195 μL growth media in black and clear bottom 96-well plates (Cat #Corning3904) and allow cells to adhere overnight. The next day, dilute test compound by 2-fold dilution into 12 points with medium containing 400 μM Erastin. Transfer 5 μL of compounds solution into growth medium in triplicated wells. 30 hours later, add Cell Titer-Glo® Luminescent cell viability assay reagent (Cat #, Promega G8081) to measure HT-1080 cell viability according to the manufacture protocol. Briefly, aspirate 100 μL medium, and add 50 μL CellTiter-Glo® Luminescent reagent to each well and incubated for 30 minutes at room temperature to stabilize the Luminescent signal. Seal the plates and centrifuged for 1 minute at 1,000 rpm to remove bubbles. Shake the plates for 1 minute on an orbital shaker. Read the plate to detect Luminescent signal with EnSpire Multimode Plate Reader (PerkinElmer). The remaining activity % is used to evaluate Erastin induced ferroptosis in HT-1080 cells and expressed as the following formula: % Remaining Activity=100×[(Sample−Backgroundavg)/(Vehicle−Backgroundavg)]
Sample: Readout from the test compound
Vehicle: Readout from the vehicle sample
Background: Readout from the Erastin only treatment
Dose response curve is graphed by using the non-linear regression analysis (formula equation 201) in XLFit (Excel add-in software) for the average % remaining activity from triplicates, and the EC50 values is then calculated. In this anti-ferroptosis assay, ferrostatin-1, and XJB-5-131 are included as reference. The acceptance criteria were set based on historical result, mean±2.58*SD in logarithmic scale, meanwhile Z′>0.5.

[2] = test system: 3T3-L1 cells; assay: Apoptosis assay (Caspase-Glo 3/7, Actinomycin D induced); assay type: cell-based; details: 100 nM Actinomycin D, read-out: EC50, inhibition for apoptosis in 3T3-L1 cell induced by Actinomycin D
Experimental: Cell Lines and Media. 3T3-L1 cells were obtained from American Type Culture Collection. Cells were grown in DMEM completed media, 10% FBS, and penicillin-streptomycin mix (Invitrogen). Cells were maintained at 37° C. and 5% CO2 in a tissue culture incubator.
Apoptosis Assay. […] We used this assay to screen our compounds for apoptosis inhibition. Briefly, 40 μL of 3000 3T3-L1 cells were seeded per well in 384 well plates, Cells were allowed to adhere overnight. In the next day, prepare the Actinomycin D as the apoptosis inducing agent into 100 μM DMSO stock. Prepare the test compounds into 10 mM DMSO stock. Serial dilute the compound into 10 points by 3-fold dilution with DMSO. Pre-treat the 3T3-L1 cells with test compound by transfer 40 nL of stock of serial concentration in triplicate wells using acoustic fluid transfer, incubate for 2 hours. Then transfer 40 nL of 100 μM of Actinomycin D (final concentration is 100 nM) into designated wells using acoustic fluid transfer. Incubate the assay plates at 37° C., 5% CO2, 95% humidity incubator for 48 hours. For caspase assay, add 20 μL/well of Caspase-Glo® 3/7 reagent (Promega) into test wells. Incubate for 30 minutes at room temperature to stabilize the luminescence signal. Read the plate with EnSpire Multimode Plate Reader (PerkinElmer). Calculate the EC50 value using formula equation 201: y=(A+((B−A)/(1+((x/C)^D)))) from the XLFit (Excel add-in software), where • A: Average mean of vehicle samples • B: Average mean of cells treated with 100 nM AcD • C: EC50 • D: HillSlope Z′ factor was used to describe the screening assay performance. The Z′ factor value was >0.5 in all the test plates which indicated the assay was qualified and the IC50 value was reliable for all tested compounds.

| SMILES | EC50 ([1]; 30 hours) [nM] | EC50 ([1]; Homo sapiens, HT-1080, 30 h) [nM] | other results |
| --- | --- | --- | --- |
| CC1=C(C)C(=O)C(CCC(=O)NCCCC[C@H](NC(=O)[C@@H]2CCCN2C(=O)[C@H](/C=C/[C@H](CC(C)C)NC(=O)OC(C)(C)C)Cc2ccccc2)C(=O)NC(C)C)=CC1=O [I, tert-Butyl ((4S,7S,E)-7-benzyl-8-((S)-2-(((S)-6-(3-(4,5-dimethyl-3,6-dioxocyclohexa-1,4-dien-1-yl)propanamido)-1-(isopropylamino)-1-oxohexan-2-yl)carbamoyl)pyrrolidin-1-yl)-2-methyl-8-oxooct-5-en-4-yl)carbamate] | 119 | – | EC50 ([2]; Mus musculus, 3T3-L1, 48 h): 1150 nM |
| COC1=C(OC)C(=O)C(CCCCCCCCCCOC(=O)NCCCC[C@H](NC(=O)[C@@H]2CCCN2C(=O)[C@H](/C=C/[C@H](CC(C)C)NC(=O)OC(C)(C)C)Cc2ccccc2)C(=O)NC(C)C)=C(C)C1=O [III, tert-butyl N-[(4S,5E,7S)-7-benzyl-8-[(2S)-2-{[(1S)-5-[({[10-(4,5-dimethoxy-2-methyl-3,6-dioxocyclohexa-1,4-dien-1-yl)decyl]oxy}carbonyl)amino]-1-[(propan-2-yl)carbamoyl]pentyl]carbamoyl}pyrrolidin-1-yl]-2-methyl-8-oxooct-5-en-4-yl]carbamate] | – | 34.6 | – |
| CC1=C(C)C(=O)C(CCCOC(=O)NCCCC[C@H](NC(=O)[C@@H]2CCCN2C(=O)[C@H](/C=C/[C@H](CC(C)C)NC(=O)OC(C)(C)C)Cc2ccccc2)C(=O)NC(C)C)=CC1=O [II] | 33 | – | – |
| CC1=C(C)C(=O)C(CCC(=O)NCCCC[C@H](NC(=O)[C@@H]2CCCN2C(=O)[C@H](/C=C/[C@H](CC(C)C)NC(=O)OC(C)(C)C)Cc2ccccc2)C(=O)NC(C)C)=CC1=O [IV, tert-Butyl ((4S,7S,E)-7-benzyl-8-((S)-2-(((S)-6-(3-(4,5-dimethyl-3,6-dioxocyclohexa-1,4-dien-1-yl)propanamido)-1-(isopropylamino)-1-oxohexan-2-yl)carbamoyl)pyrrolidin-1-yl)-2-methyl-8-oxooct-5-en-4-yl) carbamate] | 24.4 | – | EC50 ([2]; 48 hours): 702 nM |
| CC1=C(C)C(=O)C(CCCOC(=O)NCCCC[C@H](NC(=O)[C@@H]2CCCN2C(=O)[C@H](/C=C/[C@H](CC(C)C)NC(=O)OCC2CC2)Cc2ccccc2)C(=O)NC(C)C)=C(C)C1=O [IX, Cyclopropylmethyl N-[(4S,5E,7S)-7-benzyl-2-methyl-8-oxo-8-[(2S)-2-{[(1S)-1-[(propan-2-yl)carbamoyl]-5-({[3-(2,4,5-trimethyl-3,6-dioxocyclohexa-1,4-dien-1-yl)propoxy]carbonyl}amino)pentyl]carbamoyl}pyrrolidin-1-yl]oct-5-en-4-yl]carbamate] | – | 49.3 | – |
| CC1=C(C)C(=O)C(CCCOC(=O)NCCCC[C@H](NC(=O)[C@@H]2CCCN2C(=O)[C@H](/C=C/[C@H](CC(C)C)NC(=O)OC(C)(C)C)Cc2ccccc2)C(=O)NC(C)C)=CC1=O [V, tert-butyl N-[(4S,5E,7S)-7-benzyl-8-[(2S)-2-{[(1S)-5-({[3-(4,5-dimethyl-3,6-dioxocyclohexa-1,4-dien-1-yl)propoxy]carbonyl}amino)-1-[(propan-2-yl)carbamoyl]pentyl]carbamoyl}pyrrolidin-1-yl]-2-methyl-8-oxooct-5-en-4-yl]carbamate] | – | 196 | EC50 ([2]; Mus musculus, 3T3-L1, 48 h): 2740 nM |
| CCOC(=O)N[C@H](/C=C/[C@H](Cc1ccccc1)C(=O)N1CCC[C@H]1C(=O)N[C@@H](CCCCC1=C(C)C(=O)C(C)=C(C)C1=O)C(=O)NC(C)C)CC(C)C [VII, ethyl ((4S,7S,E)-7-benzyl-8-((S)-2-(((S)-1-(isopropylamino)-1-oxo-6-(2,4,5-trimethyl-3,6-dioxocyclohexa-1,4-dien-1-yl)hexan-2-yl)carbamoyl)pyrrolidin1-yl)-2-methyl-8-oxooct-5-en-4-yl)carbamate] | – | 80.5 | – |
| COc1c(C)c(C)c(OC)c(CCCOC(=O)NCCC[C@H](NC(=O)[C@@H](NC(=O)[C@@H]2CCCN2C(=O)[C@H](/C=C/[C@H](CC(C)C)NC(=O)OC(C)(C)C)Cc2ccccc2)C(C)C)C(=O)NC(C)C)c1C [VIII, tert-butyl N-[(4S,5E,7S)-7-benzyl-8-[(2S)-2-{[(1S)-1-{[(1S)-4-({[3-(2,5-dimethoxy-3,4,6-trimethylphenyl)propoxy]carbonyl}amino)-1-[(propan-2-yl)carbamoyl]butyl]carbamoyl}-2-methylpropyl]carbamoyl}pyrrolidin-1-yl]-2-methyl-8-oxooct-5-en-4-yl]carbamate] | – | > 6000 | – |
| CC1=C(C)C(=O)C(CCCC[C@H](NC(=O)[C@@H]2CCCN2C(=O)[C@H](/C=C/[C@H](CC(C)C)NC(=O)OC(C)(C)C)Cc2ccccc2)C(=O)NC(C)C)=C(C)C1=O [VI] | 39.1 | – | EC50 ([2]; 48 hours): 7320 nM |
| CC1=C(C)C(=O)C(CCCOc2ccc(C[C@H](NC(=O)[C@@H]3CCCN3C(=O)[C@H](/C=C/[C@H](CC(C)C)NC(=O)OC(C)(C)C)Cc3ccccc3)C(=O)NC(C)C)cc2)=C(C)C1=O [X, tert-Butyl ((4S,7S,E)-7-benzyl-8-((S)-2-(((S)-1-(isopropylamino)-1-oxo-3-(4-(3-(2,4,5-trimethyl-3,6-dioxocyclohexa-1,4-dien-1-yl)propoxy)phenyl)propan-2-yl)carbamoyl)pyrrolidin-1-yl)-2-methyl-8-oxooct-5-en-4-yl)carbamate] | – | 56.9 | – |
| CC1=C(C)C(=O)C(CCCOC(=O)NCCC[C@H](NC(=O)[C@@H](NC(=O)[C@@H]2CCCN2C(=O)[C@H](/C=C/[C@H](CC(C)C)NC(=O)OC(C)(C)C)Cc2ccccc2)C(C)C)C(=O)NC(C)C)=C(C)C1=O [XI, tert-butyl N-[(4S,5E,7S)-7-benzyl-2-methyl-8-[(2S)-2-{[(1S)-2-methyl-1-{[[(1S)-1-[(propan-2-yl)carbamoyl]-4-({3-(2,4,5-trimethyl-3,6-dioxocyclohexa-1,4-dien-1-yl)propoxy]carbonyl}amino)butyl]carbamoyl}propyl]carbamoyl}pyrrolidin-1-yl]-8-oxooct-5-en-4-yl]carbamate] | – | 47 | – |
| CC1=C(C)C(=O)C(CCCOC(=O)NCCC[C@H](NC(=O)[C@@H]2CCCN2C(=O)[C@H](/C=C/[C@H](CC(C)C)NC(=O)OC(C)(C)C)Cc2ccccc2)C(=O)NC2CC2)=C(C)C1=O [XII, 3-(2,4,5-trimethyl-3,6-dioxocyclohexa-1,4-dien-1-yl)propyl N-[(4S)-4-{[(2S)-1-[(2S,3E,5S)-2-benzyl-5-{[(tert-butoxy)carbonyl]amino}-7-methyloct-3-enoyl]pyrrolidin-2-yl]formamido}-4-(cyclopropylcarbamoyl)butyl] carbamate] | – | 149 | – |
